The record followed here is ChEMBL document CHEMBL1201862, “PubChem BioAssay data set” (2004).

Calls of active or inactive are those of the source.

Assay [1] deals with T1, Polyadenylate-binding protein 1 (Homo sapiens, UniProt P11940). As to the kind of experiment: MLLE binding blockers, Cy5 peptide tracer – biochemical, fluorescence polarization, Cy5-PAM2 peptide, secondary, miRNA deadenylation inhibitor project, dose response (AID 602260). To be noted: read-out: IC50_Mean. Format: functional.
Assay [2] addresses T1, Polyadenylate-binding protein 1. In words: MLLE domain peptide-binding blockers, IC50 – biochemical, fluorescence polarization, FITC-PAM2 peptide, dose response (AID 602259). The class given is functional. To be noted: read-out: IC50_Mean.
A short description of assay [3]: luciferase reporter signal suppression in cells – H4 neuroglioma cells, luminescence, dose response (AID 1990). The class given is functional, cell-based.
Assay [4] can be described thus: Luminescence Cell-Based Dose Response HTS to Identify Inhibitors of 5'UTR Stem-Loop Driven Prion Protein mRNA Translation in H4 Neuroglioblastoma Cells. [Related pubchem assays: 1827 (Project Summary), 1813 (Primary HTS)]. Format: functional.
Assay [5] can be described thus: alpha-synuclein stem-loop luciferase translation blockers – H4 neuroglioma cells, luminescence, confirmation (AID 1988). Format: functional, cell-based.
The next assay concerns INS1. In words: INS-1E survival protection against cytokine death – cell-based, luminescence, retest, dose response (AID 449756).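 Note: cell death triggered by IL-1 beta plus TNF-alpha plus IFN-gamma mixture; protective hits raise ATP signal compared with cytokine alone wells.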 The class given is functional. To be noted: Rattus norvegicus.
Assay [6] deals with T2, Microphthalmia-associated transcription factor (Homo sapiens, UniProt O75030).
T2 sequence (O75030 whole entry): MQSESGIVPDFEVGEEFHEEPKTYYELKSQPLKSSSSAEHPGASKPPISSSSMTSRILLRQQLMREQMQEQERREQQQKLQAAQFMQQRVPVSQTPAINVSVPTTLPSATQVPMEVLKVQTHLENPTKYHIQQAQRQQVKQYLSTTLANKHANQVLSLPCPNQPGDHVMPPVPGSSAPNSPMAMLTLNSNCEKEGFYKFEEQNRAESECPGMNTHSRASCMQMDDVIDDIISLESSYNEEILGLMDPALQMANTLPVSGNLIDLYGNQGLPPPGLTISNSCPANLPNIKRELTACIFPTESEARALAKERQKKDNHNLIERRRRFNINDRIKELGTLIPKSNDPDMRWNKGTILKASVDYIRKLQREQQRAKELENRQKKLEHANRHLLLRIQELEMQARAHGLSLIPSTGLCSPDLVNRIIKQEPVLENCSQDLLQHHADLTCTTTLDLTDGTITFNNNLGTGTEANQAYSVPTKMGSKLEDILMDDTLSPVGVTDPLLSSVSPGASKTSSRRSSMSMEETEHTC
In words: reducers of TRPM1 reporter luminescence, concentration series – cell-based, SK-MEL-5, cherry-picked, set 3, MITF inhibitor project, dose response (AID 493073).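 Note: SK-MEL-5 melanoma cells with luciferase driven by the MITF target TRPM1 promoter.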 Format: functional.

In another assay the target is T3, Aminopeptidase N (Plasmodium falciparum FcB1/Columbia, UniProt O96935).
T3 sequence (O96935 whole entry): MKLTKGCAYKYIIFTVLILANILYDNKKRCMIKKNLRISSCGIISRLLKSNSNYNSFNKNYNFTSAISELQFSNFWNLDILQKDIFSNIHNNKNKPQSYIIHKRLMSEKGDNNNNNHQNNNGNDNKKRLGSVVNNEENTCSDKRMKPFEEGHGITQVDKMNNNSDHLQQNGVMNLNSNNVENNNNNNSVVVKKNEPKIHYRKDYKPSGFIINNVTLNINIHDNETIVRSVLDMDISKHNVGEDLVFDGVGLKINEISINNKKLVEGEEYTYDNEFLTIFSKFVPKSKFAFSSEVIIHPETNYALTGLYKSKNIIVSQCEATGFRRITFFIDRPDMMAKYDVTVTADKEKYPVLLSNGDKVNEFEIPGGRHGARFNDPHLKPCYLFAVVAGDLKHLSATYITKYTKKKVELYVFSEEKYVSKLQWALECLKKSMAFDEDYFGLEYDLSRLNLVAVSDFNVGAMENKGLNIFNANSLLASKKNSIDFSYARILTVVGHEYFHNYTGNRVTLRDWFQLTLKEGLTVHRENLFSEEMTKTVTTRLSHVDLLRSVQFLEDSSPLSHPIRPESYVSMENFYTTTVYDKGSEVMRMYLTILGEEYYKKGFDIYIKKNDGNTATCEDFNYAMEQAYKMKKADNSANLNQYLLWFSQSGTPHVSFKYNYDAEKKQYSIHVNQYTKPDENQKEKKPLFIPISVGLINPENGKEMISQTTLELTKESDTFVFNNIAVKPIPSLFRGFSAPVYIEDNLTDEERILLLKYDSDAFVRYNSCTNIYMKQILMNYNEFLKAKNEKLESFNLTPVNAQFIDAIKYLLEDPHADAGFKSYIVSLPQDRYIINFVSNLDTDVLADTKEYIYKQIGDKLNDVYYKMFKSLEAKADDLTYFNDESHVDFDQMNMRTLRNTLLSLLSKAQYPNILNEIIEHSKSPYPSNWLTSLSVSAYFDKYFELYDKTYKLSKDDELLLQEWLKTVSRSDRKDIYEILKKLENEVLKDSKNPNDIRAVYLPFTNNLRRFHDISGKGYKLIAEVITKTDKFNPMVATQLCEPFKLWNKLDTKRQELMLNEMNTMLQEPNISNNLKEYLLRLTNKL
As to the kind of experiment: malaria alanyl aminopeptidase activity blockers – biochemical, fluorogenic H-Leu-NHMec substrate, 1536-well (AID 1445). Also noted: species or system Plasmodium falciparum 3D7, 3D7.

Assay [7] in a line: HEK-293T cell viability reduction – luminescence, B-cell screen hits, cytotoxicity control for BCR NF-kB inhibitor project, dose response (AID 489021).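 Note: HEK-293T cells carrying an NF-kB luciferase reporter; cells exposed to compound for about 14 hours before viability readout.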 The class given is functional, cell-based.
A short description of assay [8]: NIH-3T3 fibroblast cytotoxicity, dose response, cytotoxicity control, cell-based, fluorescence, Alamar Blue, secondary assay (AID 2327).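 Note: NIH-3T3 mouse fibroblasts cultured with fluconazole at 8 µg/mL.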 Format: functional.
Assay [9] is described as follows: cells. Format: functional, cell-based.
Assay [10] in a line: fluconazole-exposed Candida albicans growth modulators – fluorescence, retest, confirmation (AID 2467). The class given is functional, cell-based.
Assay [11] is described as follows: cells. The class given is functional, cell-based. The source holds these as a separate data set.
Assay [12] in a line: THP-1 cell cytotoxicity, dose response, cytotoxicity control for non-replicating M. tuberculosis project (AID 489025). The class given is functional.
The nature of assay [13]: HepG2 cell cytotoxicity, dose response, cytotoxicity control for non-replicating M. tuberculosis project (AID 489018). As to conditions: Mycobacterium tuberculosis. Format: functional.
Assay [14] in a line: Vero E6 cell cytotoxicity, dose response, cytotoxicity control for non-replicating M. tuberculosis project, secondary assay (AID 492998). Format: functional, VeroE6. As to conditions: Vero C1008.
A further assay has as its system HEK293. As to the kind of experiment: EBV LMP1 TES2 canonical NF-kB signalling blockers – cell-based, HEK293, luciferase, cherry-pick, dose response (AID 588343). Format: functional. As to conditions: Homo sapiens.
A short description of assay [15]: cells. The class given is functional.
Assay [16] addresses Glucose-6-phosphate 1-dehydrogenase (Homo sapiens, UniProt P11413). As to the kind of experiment: inhibition of Homo sapiens G6PD, dose series – biochemical, fluorescence, selectivity assay for P. falciparum G6PD inhibitor project, dose response (AID 504792). Format: functional.
The target of assay [17] is T4, Short transient receptor potential channel 4 (Mus musculus, UniProt Q9QUQ5).
T4 sequence (Q9QUQ5 whole entry): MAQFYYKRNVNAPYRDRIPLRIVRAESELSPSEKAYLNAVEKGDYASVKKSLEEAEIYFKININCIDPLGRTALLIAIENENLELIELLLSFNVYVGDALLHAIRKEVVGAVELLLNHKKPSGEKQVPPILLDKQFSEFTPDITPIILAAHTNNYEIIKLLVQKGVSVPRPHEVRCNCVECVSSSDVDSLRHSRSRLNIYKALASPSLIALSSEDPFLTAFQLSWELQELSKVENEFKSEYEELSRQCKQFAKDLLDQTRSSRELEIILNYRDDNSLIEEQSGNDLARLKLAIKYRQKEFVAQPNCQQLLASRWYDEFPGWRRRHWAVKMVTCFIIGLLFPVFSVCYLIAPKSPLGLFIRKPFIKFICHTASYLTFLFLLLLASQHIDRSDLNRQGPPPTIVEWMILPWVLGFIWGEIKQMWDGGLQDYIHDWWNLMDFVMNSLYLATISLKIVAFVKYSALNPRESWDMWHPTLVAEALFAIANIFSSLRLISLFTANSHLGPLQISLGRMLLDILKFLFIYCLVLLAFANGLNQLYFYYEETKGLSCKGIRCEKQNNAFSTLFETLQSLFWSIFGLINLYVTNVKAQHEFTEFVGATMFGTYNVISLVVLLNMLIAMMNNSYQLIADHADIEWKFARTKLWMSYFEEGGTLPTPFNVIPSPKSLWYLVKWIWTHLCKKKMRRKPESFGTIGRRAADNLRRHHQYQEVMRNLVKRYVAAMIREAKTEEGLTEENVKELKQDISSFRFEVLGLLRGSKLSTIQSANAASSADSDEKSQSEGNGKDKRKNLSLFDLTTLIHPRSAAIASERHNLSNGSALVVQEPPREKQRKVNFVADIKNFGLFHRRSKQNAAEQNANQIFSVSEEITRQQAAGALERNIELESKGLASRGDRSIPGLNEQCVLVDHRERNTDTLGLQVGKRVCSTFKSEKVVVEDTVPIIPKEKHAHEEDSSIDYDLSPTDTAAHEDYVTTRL
In words: block of DAMGO-driven TRPC4 calcium entry – cell-based, HEK293 TRPC4/mu-opioid, Fluo-4 calcium, dose response (AID 434942).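 Note: potency of inhibitors blocking the TRPC4 calcium response.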 Format: functional.

T1 sequence (P11940 whole entry, the tested form may be a part): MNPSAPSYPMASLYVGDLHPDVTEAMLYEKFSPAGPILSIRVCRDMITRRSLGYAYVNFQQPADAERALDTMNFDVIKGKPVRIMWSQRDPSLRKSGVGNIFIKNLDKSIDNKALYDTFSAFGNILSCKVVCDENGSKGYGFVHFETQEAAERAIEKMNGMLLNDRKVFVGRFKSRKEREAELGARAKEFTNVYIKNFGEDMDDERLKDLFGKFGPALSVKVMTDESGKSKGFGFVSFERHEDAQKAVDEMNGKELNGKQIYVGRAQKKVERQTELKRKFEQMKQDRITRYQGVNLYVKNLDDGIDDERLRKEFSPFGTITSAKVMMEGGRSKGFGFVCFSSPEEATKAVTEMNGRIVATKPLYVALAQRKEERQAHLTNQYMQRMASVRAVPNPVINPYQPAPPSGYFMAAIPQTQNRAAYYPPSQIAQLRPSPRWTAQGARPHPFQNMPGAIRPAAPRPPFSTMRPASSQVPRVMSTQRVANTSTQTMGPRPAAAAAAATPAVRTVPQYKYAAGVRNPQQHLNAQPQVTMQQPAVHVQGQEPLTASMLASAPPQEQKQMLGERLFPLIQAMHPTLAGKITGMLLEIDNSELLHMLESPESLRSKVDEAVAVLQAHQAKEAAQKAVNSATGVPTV
Glucose-6-phosphate 1-dehydrogenase, sequence (P11413 whole entry): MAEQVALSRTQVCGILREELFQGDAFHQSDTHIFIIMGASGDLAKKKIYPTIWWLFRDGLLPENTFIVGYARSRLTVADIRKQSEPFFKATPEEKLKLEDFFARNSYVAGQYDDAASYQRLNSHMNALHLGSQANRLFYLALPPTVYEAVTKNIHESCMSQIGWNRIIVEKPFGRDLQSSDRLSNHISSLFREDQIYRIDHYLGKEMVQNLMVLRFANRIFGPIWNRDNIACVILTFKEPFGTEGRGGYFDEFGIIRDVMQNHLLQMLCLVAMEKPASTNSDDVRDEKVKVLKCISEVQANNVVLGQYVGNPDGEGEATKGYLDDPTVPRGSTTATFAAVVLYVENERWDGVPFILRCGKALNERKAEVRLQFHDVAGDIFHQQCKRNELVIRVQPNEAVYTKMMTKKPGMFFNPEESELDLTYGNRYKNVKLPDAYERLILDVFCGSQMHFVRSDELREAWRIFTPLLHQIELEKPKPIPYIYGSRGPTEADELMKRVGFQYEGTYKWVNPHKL

As for `Cc1ccc(C2CC2C(=O)NN=C(S)Nc2ccc(Cl)cc2)cc1` (stereo not given), the IC50 in [1] and in [2] was > 66 µM (inactive) in each case.
On to `NC(=S)N/N=C/c1c(O)ccc2ccccc12`, for which the EC50 was 24.5 µM (active) in assay [3], 22.8 µM (active) in assay [4] and 11.6 µM (active) in assay [5]. Also, the AC50 in the assay with INS1 is 1.09 µM (active). In addition, the IC50 in [1] and in assay [2] was > 66 µM (inactive) throughout.
With `Cc1ccc(-c2c[n+](-c3ccc(SC(F)F)cc3)c3n2CCC3)cc1`, the concentration at half-maximal activity (AC50) in assay [6] is 1.64 µM (active); in the assay with INS1 it was 5.09 µM (active).
On to `CCCN1C(=O)/C(=C/c2c(N3CCNC(=O)C3CC(=O)OCC)nc3c(C)cccn3c2=O)SC1=S` (stereo not given), for which the IC50 on Aminopeptidase N was 34.1 µM (active); in [7], 50 µM (inactive).
With `O=C(N/N=C/c1cc(Br)ccc1O)c1ccccc1Cl`, the EC50 in assay [8] was > 160 µM (inactive); in “cells [9]”, 103 µM (active); in assay [10] it was > 38 µM (not active); in “cells [11]” it was > 350 µM (not active). The IC50 at Aminopeptidase N is 8.06 µM (active). Also, the CC50 in assay [12] was 2.16 µM (active); in assay [13], 8.07 µM (active); in assay [14] it was 6.98 µM (active). In addition, the concentration at half-maximal activity (AC50) with HEK293 is 18.9 µM (active).
In the case of `O=C(CCS(=O)(=O)c1ccccc1)Nc1nccs1`, the AC50 in the assay on HEK293 was 48.6 µM (active).
Regarding `CCn1c(N)c(C(=O)NC2CCCCC2)sc1=S`, the IC50 in assay [1] and in assay [2] was > 66 µM (inactive) in each case.
For `CCOc1ccc(NC(=O)CCC(=O)N/N=C/c2ccc([N+](=O)[O-])s2)cc1`, the half-maximal activity concentration (AC50) in assay [6] was 6.21 µM (active). The IC50 in “cells [15]” is 13.6 µM (active).
In the case of `CCN1CCCC1CNC(=O)c1ccc2c(c1)NC(=O)/C(=C\c1ccc(C)cc1)S2` (stereo not given), the figures for the concentration for a half-maximal effect (EC50) in [3], in [4] and in assay [5] were > 120 µM (not active), 16 µM (active) and > 120 µM (not active), respectively. Moreover, the IC50 in [16] is > 80 µM (inactive). For the same compound, the concentration at half-maximal activity (AC50) in assay [6] is 18.9 µM (active).
For the compound `C(=N\Nc1nc2ccccc2[nH]1)/c1cccc2nccnc12`, the 50% effective concentration (EC50) in [3] is 18.5 µM (active); in “cells [9]” it was > 350 µM (not active); in assay [4] it was 9.69 µM (active); in assay [5], 5.54 µM (active); in “cells [11]” it was > 350 µM (not active). Moreover, the AC50 with HEK293 was 105 µM (active).
Take `Cc1ccc(C)c2nc(O)c(CN(CC3CCCO3)C(S)=NCc3ccco3)cc12` (stereo not given): the half-maximal effective concentration (EC50) in [17] is 2.11 µM (active).
Still for that read-out and setting: next, `O=C(CN1CCN(Cc2ccccc2Cl)CC1)N=Nc1c(O)[nH]c2ccccc12`: 0.376 µM (active).
For `O=C(O)CCCC(=O)N1N=C(c2c(O)nc3ccc(Cl)cc3c2-c2ccccc2)CC1c1cccs1` (stereo not given), the IC50 on Aminopeptidase N is 20.3 µM (active).
As to `O=C(/C=C/Nc1cccc(C(F)(F)F)c1)C(F)(F)F`, the AC50 with HEK293 is > 350 µM (inactive).
Take `COc1ccccc1N1CCN(C(=O)CCC(=O)N2CCN(c3ccc(F)cc3)CC2)CC1`: in the assay with HEK293, the concentration at half-maximal activity (AC50) is 186 µM (active).
With `CCOc1cc(C2C3=C(CCCC3=O)OC3=C2C(=O)CCC3)cc([N+](=O)[O-])c1O`, the IC50 at Aminopeptidase N is 46.3 µM (active).
Consider `CC(=O)OC1(c2ccccc2)CCN(C2CCCCC2)CC1C` (stereo not given), for which, in assay [17], the EC50 was 1.06 µM (active).
As for `CCCn1c(=N)n(CC(=O)C(C)(C)C)c2ccccc21`, the EC50 in assay [17] was 5.31 µM (active).
